Data: patent US9804152B1, “Human ex vivo skin model and its use in methods of identifying modulators of skin inflammation” (The Procter & Gamble Company, priority 2012, dated 2017)

How the values were obtained:
Format in all cases: cell-based
[1] = test system: endogenously inflamed ex vivo human skin sample; assay: Inhibitors of endogenous inflammation: inflammation marker gene expression in ex vivo skin samples; conditions: 10 μM clobetasol
Text: (§1) This Example describes the materials and methods used in preparing ex vivo skin samples for use according to the methods disclosed herein. Materials used in preparation of ex vivo skin samples for use in the disclosed screening methods included: Dulbecco's Modified Eagle Medium (DMEM) plus Glutamax, antibiotic and antimycotics, 1× phosphate-buffered saline (PBS), 150×15 mm sterile culture dishes, sterile gauze 4×4, disposable safety scalpels, 4 mm disposable biopsy punch, 6-well cell-culture inserts, disinfected tweezers, cotton-tipped applicators, 6-well culture plates, ruled, disinfected cutting mat (12×12), scraper handle, tissue freezing medium, biopsy cassettes, frozen-tissue freezing vessels, 10% formalin, shipping containers for fixed tissue, and biohazard/sharps containers. Media was prepared in advance of the arrival of ex vivo skin. The skin arrived with the dermis (fat) side down on sterile DMEM soaked gauze in a sterile culture dish. The culture dish was taped shut and in a biohazard zip-lock baggie on an ice pack in a secondary container.
(§2) On arrival, the skin was removed from the bag and soaked in 3×DMEM media (3× refers to concentration of antibiotic and antimycotics) and stored at 4° C. for 1 hour. After 1 hour, the skin was removed from the 3×DMEM and rinsed with sterile 1×PBS. The skin was placed in a clean culture dish containing gauze soaked with 1×DMEM. The sample was put in culture the same day as arrival. If necessary, however, the ex vivo skin samples can be stored at 4° C. overnight.
(§3) In preparation for culture, the following was performed: on a cutting mat, the skin was flipped over so that the epidermis was down and the subcutis (fat) was exposed. The fat was removed with a disposable scalpel by carefully grasping one corner of the skin with sterile serrated forceps and scraping the fat away with the blade held at a 45° angle to the skin. After the fat was removed, the surgical edges were cut off with a scalpel using a scraper as a straight edge guide and to hold the skin in place. Using the scraper as a guide, the skin was cut into 1.25 cm (2×2 squares on grid) wide strips using a ruler to measure the width. The strip was rinsed in a 100 mm culture dish containing 1×PBS. The strips were cut into 1.25 cm^2 squares and placed in a 100 mm culture dish on 1×DMEM-soaked gauze until they were put into culture 30 minutes later.
(§4) Culture plates were prepared that included 2.5 ml of media or media with treatment (e.g., a candidate modulator, an inflammation inducer, and/or an inhibitor of inflammation) in each well of a 6-well plate. One Millicell culture insert was added to each well and 100 μl of 1× DMEM was put in the center of each insert membrane. Squares of skin tissue were selected randomly and placed into each of the inserts (one piece of skin per insert), on top of the media on the membrane. The plates were stored at 33° C., with fresh media changes daily. As a control, baseline tissue measurements were collected from excess waste (cryogenics were used for snap-freezing). Baseline biopsy collection included two 4 mm punches for an MTT colorimetric assay (described below); one 4 mm punch was snap-frozen in OCT tissue compound for fresh histology; one 4 mm punch was fixed in 10% formalin and sent out for paraffin embedding. Expression measurements of inflammation marker genes were performed using PCR and primers appropriate to the known sequence of the gene(s) of interest.
(§5) Culturing and treatment of the ex vivo skin model comprised replicates of n=5. Before experimental treatment, compounds (e.g., a candidate modulator, an inflammation inducer, or a suppressor of inflammation) were solubilized in appropriate solvents (including PBS, media, alcohol, and DMSO). Appropriate dilutions were made for treatment and 15 ml of media was used per plate per day for treatment, with 2.5 ml of media per well under the cell culture insert. Media was pre-warmed and changed every day during the experiment. […]

[2] = test system: ex vivo human skin sample; assay: Inducers of inflammation: inflammation marker gene expression in ex vivo skin samples (PCR)
Text: as §1, §2, §3, §4
(§6) Culturing and treatment of the ex vivo skin model comprised replicates of n=5. Before experimental treatment, compounds (e.g., a candidate modulator, an inflammation inducer, or a suppressor of inflammation) were solubilized in appropriate solvents (including PBS, media, alcohol, and DMSO). Appropriate dilutions were made for treatment and 15 ml of media was used per plate per day for treatment, with 2.5 ml of media per well under the cell culture insert. Media was pre-warmed and changed every day during the experiment.

[3] = test system: endogenously inflamed ex vivo human skin sample; assay: Inhibitors of endogenous inflammation: IL-8/IL-6 secretion by ex vivo skin samples; conditions: for IL-8 secretion: endogenously inflamed skin sample, without inhibitor about 2,600 pg/ml; for IL-8 secretion / IL-8 expression (secretion): day 3; for IL-8 expression: not induced, untreated 1045 pg/ml; for inhibition of endogenous inflammation, conclusion in words: IL-8 as marker; for IL-8 expression (secretion): untreated (endogenous) skin sample; for fold-regulation in secretion (expression) of IL-6 / fold-regulation in secretion (expression) of IL-8: endogenously inflamed skin
Text: as §1, §2, §3, §4, §6

[4] = test system: induced inflamed ex vivo human skin sample (IL-17 + IL-22); assay: Inhibitors of IL-17/IL-22-induced inflammation: IL-8 secretion by ex vivo skin samples; conditions: for IL-8 expression: induced by IL-17 (200 ng/ml)/IL-22 (20 ng/ml), day 4, induced alone 1798 pg/ml; for inhibition of IL-17/IL-22 induced inflammation, conclusion in words: IL-8 as marker; for IL-8 expression (secretion): IL-17/IL-22-induced inflammation, day 3, induced alone about 3,800 pg/ml
[5] = test system: ex vivo human skin sample; assay: Inducers of inflammation: inflammation marker secreted into the media by ex vivo skin samples (ELISA); conditions: IL-1β 10 ng/ml on first four days of eight-day experiment
Text: as §1, §2
In preparation for culture, the following was performed: on a cutting mat, the skin was flipped over so that the epidermis was down and the subcutis (fat) was exposed. The fat was removed with a disposable scalpel by carefully grasping one corner of the skin with sterile serrated forceps and scraping the fat away with the blade held at a 45° angle to the skin. After the fat was removed, the surgical edges were cut off with a scalpel using a scraper as a straight edge guide and to hold the skin in place. […]

[6] = test system: induced inflamed ex vivo human skin sample (IL-17 + IL-22); assay: Inhibitors of IL-17/IL-22-induced inflammation: inflammation marker gene expression in ex vivo skin samples
Text: as §1, §2, §3, §4, §5

[7] = endogenously inflamed, 0.6 nM betamethasone, 0.08 μM hydrocortisone, 30 μM ketoprofen, 35 μM arlatone

## C[C@]12CCC(=O)C=C1CC[C@@H]1[C@@H]2[C@@H](O)C[C@@]2(C)[C@H]1CC[C@]2(O)C(=O)CO [hydrocortisone]
[1]; [7]
  rank ordering of inflammation inhibitors based on IL-8 and IL-6 inhibition levels: followed by betamethasone, hydrocortisone, ketoprofen and arlatone
  reduction in the three markers (IL-6, IL-8, and TNFa), rank ordering of efficacy in words (FIG. 15): less robust

## IL-17: pro-inflammatory cytokine used as inducer of inflammation
[2]
  induction of inflammation in ex vivo skin samples, in words: shown to induce inflammation in ex vivo skin samples

## c1cnc2c(c1)ccc1cccnc12 [1,10-phenanthroline]
[3]; topical 1.2 μg/ml 1,10-phenanthroline
  IL-8 secretion: about 900 pg/ml

## S=[Se]=S [selenium sulfide]
[3]; selenium sulfide 0.04-25 μM (0.04, 0.2, 1, 5, 25 μM), endogenous inflammation, dose response
  IL-8 secretion, in words: decreased secretion levels of IL-8

## O=c1cc(-c2ccc(O)cc2)oc2cc(O)cc(O)c12 [apigenin]
[4]; 25 μM apigenin
  IL-8 expression: 1276 pg/mL
[4]
  inhibition of IL-17/IL-22 induced inflammation, conclusion in words: does not appear to function effectively to inhibit induced inflammation
[3]; 25 μM apigenin, day 4
  IL-8 expression: 106 pg/mL
[3]
  inhibition of endogenous inflammation, conclusion in words: functions effectively in inhibiting endogenous inflammation

## zinc pyrithione [ZPT]
[4]; 0.4 μg/cm^2 topical ZPT
  IL-8 expression (secretion): about 2,300 pg/ml
[4]
  inhibition of IL-17/IL-22 induced inflammation, conclusion in words: did inhibit IL-17. IL-22 induced inflammation
[3]
  inhibition of endogenous inflammation, conclusion in words: did not significantly inhibit endogenous inflammation
[3]; topical 0.4 μg/cm^2 zinc pyrithione, without inhibitor about 1,200 pg/ml
  IL-8 expression (secretion): about 2,000 pg/ml

## IL-1β: pro-inflammatory cytokine used as inducer of inflammation
[2]
  induction of inflammation in ex vivo skin samples, in words: shown to induce inflammation in ex vivo skin samples
[2]; 100 pg/ml IL-1β, after 1 day
  fold-change in IL-8 expression: 3.28 fold
  fold-change in TNF-α expression: −1.21 fold
[2]; 100 pg/ml IL-1β, after 2 days
  fold-change in IL-8 expression: 2.58 fold
  fold-change in TNF-α expression: 1.34 fold
[2]; 100 pg/ml IL-1β, after 3 days
  fold-change in IL-8 expression: 7.88 fold
  fold-change in TNF-α expression: 1.37 fold
[2]; 100 pg/ml IL-1β, after 4 days
  fold-change in IL-8 expression: 5.47 fold
  fold-change in TNF-α expression: 2.67 fold
[2]; 100 pg/ml IL-1β, after 6 days
  fold-change in IL-8 expression: 2.42 fold
  fold-change in TNF-α expression: −1.29 fold
[2]; 100 pg/ml IL-1β, after 10 days
  fold-change in IL-8 expression: 9.02 fold
  fold-change in TNF-α expression: 1.19 fold
[2]; 100 pg/ml IL-1β, end of 10-day experiment
  HMGCR expression relative to untreated controls, at termination: about 0.8 fold
[2]; IL-1β, both 10 pg/ml and 100 pg/ml, day 10
  ceramide synthase 3, increase in expression: ~1.5 fold
[5]; increase from about 65 pg/ml
  TNF-α expression (amount of biomarker present in the media): about 120 pg/ml
[5]; increase from an average of about 8.2 ng/ml
  IL-6 expression (amount of biomarker present in the media): ≤ 12.3 ng/mL

## C[C@H]1C[C@H]2[C@@H]3CCC4=CC(=O)C=C[C@]4(C)[C@@]3(F)[C@@H](O)C[C@]2(C)[C@@]1(O)C(=O)CCl [clobetasol]
[6]; 10 μM clobetasol with IL-17 (200 ng/ml) and IL-22 (20 ng/ml), induced alone about 6-fold
  IL-6 expression relative to control values: about 0.3 fold
[6]; 10 μM clobetasol with IL-17 (200 ng/ml) and IL-22 (20 ng/ml), induced alone about 16-fold
  IL-8 expression relative to the untreated control: about 3 fold
[6]; 10 μM clobetasol with IL-17 (200 ng/ml) and IL-22 (20 ng/ml), induced alone about 34-fold
  S100A7 expression relative to the untreated control: about 26 fold
[6]; 10 μM clobetasol with IL-17 (200 ng/ml) and IL-22 (20 ng/ml), induced alone about 800-fold
  DEFB4 expression relative to controls: about 200 fold
[6]; 10 μM clobetasol, IL-17 (200 ng/ml) + IL-22 (20 ng/ml) driven inflammation
  gene expression of key inflammatory markers (nine marker genes, FIG. 8), in words: appropriately inhibits gene expression of key inflammatory markers
[6]; 10 μM clobetasol, IL-17 (200 ng/ml) and IL-22 (20 ng/ml)
  IL-6 expression level in the presence of the inducers and clobetasol, in words: lower than the IL-6 expression level in untreated skin cells
[6]; 10 μM clobetasol, inflammation induced by IL-17 (200 ng/ml) and IL-22 (20 ng/ml)
  expression levels of IL-8, IL-6, S100A7 and DEFB4, in words: significantly reduced expression levels
[1]; endogenous inflammation
  gene expression of key inflammatory markers (nine marker genes, FIG. 8), in words: appropriately inhibits gene expression of key inflammatory markers
[1]; [7]
  S100A7 expression, in words: inhibited S100A7 expression
  rank ordering of inflammation inhibitors based on IL-8 and IL-6 inhibition levels: most effective inhibitor
  reduction in the three markers (IL-6, IL-8, and TNFa), rank ordering of efficacy in words (FIG. 15): shows the greatest reduction
[1]; topical, day 3 (72 hours), 1.2 μg/ml 1,10-phenanthroline, endogenous inflammation
  gene expression of IL-8, IL-6, S100A7 and DEFB4, in words: inhibited expression of IL-8, IL-6 and S100A7
[4]; 1 pg/cm^2 topical clobetasol
  IL-8 expression (secretion): about 1,100 pg/cm^2
[4]; 10 μM clobetasol with 200 ng/ml IL-17 and 20 ng/ml IL-22, day 4, induced without inhibitor about 13,600 pg/ml
  IL-8 secreted into the media: about 4,400 pg/ml
[4]; 10 μM clobetasol
  IL-8 expression: 65 pg/mL
[4]
  inhibition of IL-17/IL-22 induced inflammation, conclusion in words: functions effectively as an inhibitor of both endogenous and induced inflammation
[3]; 10 μM clobetasol, donor 1 of 5
  fold-regulation in secretion (expression) of IL-6: −3.28 fold
  fold-regulation in secretion (expression) of IL-8: −2.72 fold
[3]; 10 μM clobetasol, donor 2 of 5
  fold-regulation in secretion (expression) of IL-6: −3.55 fold
  fold-regulation in secretion (expression) of IL-8: −2.72 fold
[3]; 10 μM clobetasol, donor 3 of 5
  fold-regulation in secretion (expression) of IL-6: −8.69 fold
  fold-regulation in secretion (expression) of IL-8: −3.68 fold
[3]; 10 μM clobetasol, donor 4 of 5
  fold-regulation in secretion (expression) of IL-6: −5.70 fold
  fold-regulation in secretion (expression) of IL-8: −3.89 fold
[3]; 10 μM clobetasol, donor 5 of 5
  fold-regulation in secretion (expression) of IL-6: −2.20 fold
  fold-regulation in secretion (expression) of IL-8: −1.76 fold
[3]; 10 μM clobetasol, day 4
  IL-8 expression: 50 pg/mL
[3]; 10 μM clobetasol, otherwise untreated sample, day 4, untreated about 5,800, 0.01% DMSO about 8,000 pg/ml
  IL-8 secreted into the media: about 400 pg/ml
[3]
  inhibition of endogenous inflammation, conclusion in words: functions effectively as an inhibitor of both endogenous and induced inflammation
[3]; topical 10 μM clobetasol
  IL-8 secretion: about 300 pg/ml
[3]; topical clobetasol 1 μg/cm^2 skin surface, reduction from about 1,200 pg/ml
  IL-8 expression (secretion): about 200 pg/ml

## CC(C(=O)O)c1cccc(C(=O)c2ccccc2)c1 (centres unmarked) [ketoprofen]
[1]; [7]
  CALML5 expression, in words: slightly inhibiting expression
  FLG expression, in words: slightly inhibited expression
  rank ordering of inflammation inhibitors based on IL-8 and IL-6 inhibition levels: followed by betamethasone, hydrocortisone, ketoprofen and arlatone
  reduction in the three markers (IL-6, IL-8, and TNFa), rank ordering of efficacy in words (FIG. 15): less robust
